Measurements as given in the NIST ThermoML archive (doi:10.1021/je8009545).

Experiment: xn = mol fraction of the nth substance listed
Conditions: Gas; for mass density: Gas pipette; for viscosity: Oscillating disk viscometry

COC [dimethyl ether] + N#N
Conditions | mass density [kg/m3] | viscosity [mPa·s]
298.15 K, 101 kPa, x1 = 0.256 | 1.178 | 0.01483
298.15 K, 101 kPa, x1 = 0.449 | 1.433 | 0.013
298.15 K, 101 kPa, x1 = 0.752 | 1.783 | 0.01063
298.15 K, 101 kPa, x1 = 1 | 1.91 | 0.00922
298.15 K, 262 kPa, x1 = 0.752 | 4.839 | 0.0106
298.15 K, 264 kPa, x1 = 0.449 | 4.075 | 0.013
298.15 K, 296 kPa, x1 = 1 | 6.081 | 0.00918
298.15 K, 305 kPa, x1 = 0.256 | 4.298 | 0.01488
298.15 K, 475 kPa, x1 = 1 | 10.06 | 0.0091
298.15 K, 614 kPa, x1 = 0.752 | 11.78 | 0.0106
298.15 K, 640 kPa, x1 = 0.449 | 9.965 | 0.01303
298.15 K, 683 kPa, x1 = 0.256 | 9.296 | 0.01494
323.15 K, 101 kPa, x1 = 0.228 | 1.08 | 0.01629
323.15 K, 101 kPa, x1 = 0.449 | 1.144 | 0.01402
323.15 K, 101 kPa, x1 = 0.698 | 1.303 | 0.012
323.15 K, 101 kPa, x1 = 1 | 1.652 | 0.00997
323.15 K, 270 kPa, x1 = 0.698 | 4.353 | 0.01201
323.15 K, 295 kPa, x1 = 1 | 5.561 | 0.00996
323.15 K, 321 kPa, x1 = 0.449 | 4.449 | 0.01406
323.15 K, 354 kPa, x1 = 0.228 | 4.544 | 0.01632
323.15 K, 485 kPa, x1 = 0.698 | 7.499 | 0.01201
323.15 K, 486 kPa, x1 = 0.449 | 6.864 | 0.01408
323.15 K, 490 kPa, x1 = 1 | 9.31 | 0.00993
323.15 K, 553 kPa, x1 = 0.228 | 6.768 | 0.01636
323.15 K, 695 kPa, x1 = 0.698 | 11.57 | 0.01206
323.15 K, 714 kPa, x1 = 0.449 | 10.2 | 0.01408
323.15 K, 736 kPa, x1 = 1 | 14.71 | 0.00995
323.15 K, 910 kPa, x1 = 0.228 | 11.15 | 0.01636
323.15 K, 946 kPa, x1 = 0.698 | 15.73 | 0.01208
323.15 K, 976 kPa, x1 = 1 | 22.53 | 0.00994
323.15 K, 990 kPa, x1 = 0.449 | 13.89 | 0.01413
348.15 K, 101 kPa, x1 = 0.313 | 1.11 | 0.01638
348.15 K, 101 kPa, x1 = 0.491 | 1.237 | 0.01463
348.15 K, 101 kPa, x1 = 0.661 | 1.332 | 0.01319
348.15 K, 101 kPa, x1 = 1 | 1.332 | 0.01081
348.15 K, 294 kPa, x1 = 0.313 | 3.552 | 0.01639
348.15 K, 305 kPa, x1 = 1 | 5.17 | 0.01081
348.15 K, 306 kPa, x1 = 0.661 | 4.345 | 0.01319
348.15 K, 325 kPa, x1 = 0.491 | 4.155 | 0.01468
348.15 K, 519 kPa, x1 = 0.661 | 7.453 | 0.01321
348.15 K, 520 kPa, x1 = 0.313 | 6.153 | 0.01644
348.15 K, 525 kPa, x1 = 0.491 | 6.977 | 0.01471
348.15 K, 551 kPa, x1 = 1 | 9.705 | 0.01082
348.15 K, 992 kPa, x1 = 0.661 | 14.43 | 0.01327
348.15 K, 998 kPa, x1 = 0.313 | 11.96 | 0.0165
348.15 K, 1006 kPa, x1 = 1 | 19.03 | 0.01085
348.15 K, 1021 kPa, x1 = 0.491 | 13.54 | 0.01476
348.15 K, 1561 kPa, x1 = 1 | 35.81 | 0.01094
348.15 K, 1850 kPa, x1 = 1 | 44.66 | 0.01106
348.15 K, 1909 kPa, x1 = 0.491 | 26.07 | 0.01499
348.15 K, 2053 kPa, x1 = 0.661 | 33.49 | 0.01353
348.15 K, 2095 kPa, x1 = 0.313 | 25.47 | 0.01672
373.15 K, 101 kPa, x1 = 0.281 | 0.665 | 0.01773
373.15 K, 101 kPa, x1 = 0.522 | 0.95 | 0.01534
373.15 K, 101 kPa, x1 = 0.82 | 1.171 | 0.01282
373.15 K, 101 kPa, x1 = 1 | 1.235 | 0.01161
373.15 K, 301 kPa, x1 = 0.522 | 3.577 | 0.01535
373.15 K, 305 kPa, x1 = 1 | 4.748 | 0.0116
373.15 K, 312 kPa, x1 = 0.82 | 4.4 | 0.01285
373.15 K, 325 kPa, x1 = 0.281 | 3.419 | 0.01777
373.15 K, 500 kPa, x1 = 1 | 7.787 | 0.01162
373.15 K, 516 kPa, x1 = 0.82 | 7.217 | 0.01285
373.15 K, 520 kPa, x1 = 0.281 | 5.508 | 0.01777
373.15 K, 530 kPa, x1 = 0.522 | 6.584 | 0.01539
373.15 K, 1011 kPa, x1 = 0.281 | 10.64 | 0.01784
373.15 K, 1028 kPa, x1 = 1 | 16.71 | 0.01168
373.15 K, 1029 kPa, x1 = 0.522 | 12.76 | 0.0155
373.15 K, 1038 kPa, x1 = 0.82 | 15.16 | 0.01295
373.15 K, 1915 kPa, x1 = 0.281 | 20.8 | 0.01801
373.15 K, 1940 kPa, x1 = 1 | 35.33 | 0.01191
373.15 K, 1952 kPa, x1 = 0.82 | 30.93 | 0.01314
373.15 K, 2036 kPa, x1 = 0.522 | 25.83 | 0.01568
373.15 K, 2505 kPa, x1 = 1 | 51.25 | 0.01219
373.15 K, 2875 kPa, x1 = 1 | 67.49 | 0.01247
373.15 K, 2895 kPa, x1 = 0.82 | 51.12 | 0.01352
373.15 K, 3005 kPa, x1 = 0.281 | 33.02 | 0.01823
373.15 K, 3049 kPa, x1 = 1 | 74.07 | 0.01261
373.15 K, 3065 kPa, x1 = 0.522 | 40.84 | 0.01599
398.15 K, 101 kPa, x1 = 0.246 | 0.853 | 0.01917
398.15 K, 101 kPa, x1 = 0.525 | 0.885 | 0.01617
398.15 K, 101 kPa, x1 = 0.78 | 0.727 | 0.01397
398.15 K, 101 kPa, x1 = 1 | 0.948 | 0.01234
398.15 K, 300 kPa, x1 = 1 | 4.392 | 0.01237
398.15 K, 310 kPa, x1 = 0.246 | 2.938 | 0.01921
398.15 K, 315 kPa, x1 = 0.78 | 4.107 | 0.01399
398.15 K, 317 kPa, x1 = 0.525 | 3.633 | 0.01622
398.15 K, 516 kPa, x1 = 0.525 | 5.877 | 0.01623
398.15 K, 519 kPa, x1 = 0.246 | 5.15 | 0.01919
398.15 K, 531 kPa, x1 = 1 | 7.678 | 0.01239
398.15 K, 533 kPa, x1 = 0.78 | 7.077 | 0.01401
398.15 K, 992 kPa, x1 = 1 | 15.1 | 0.01244
398.15 K, 1009 kPa, x1 = 0.78 | 13.52 | 0.0141
398.15 K, 1020 kPa, x1 = 0.525 | 11.91 | 0.01629
398.15 K, 1048 kPa, x1 = 0.246 | 10.02 | 0.01926
398.15 K, 2018 kPa, x1 = 0.525 | 23.95 | 0.01651
398.15 K, 2030 kPa, x1 = 0.246 | 19.75 | 0.01943
398.15 K, 2030 kPa, x1 = 0.78 | 28.37 | 0.01433
398.15 K, 2085 kPa, x1 = 1 | 34.47 | 0.01274
398.15 K, 2973 kPa, x1 = 0.246 | 29.35 | 0.0196
398.15 K, 2985 kPa, x1 = 1 | 54.66 | 0.01317
398.15 K, 2986 kPa, x1 = 0.78 | 44.58 | 0.01465
398.15 K, 3015 kPa, x1 = 0.525 | 36.43 | 0.01675
398.15 K, 3735 kPa, x1 = 0.78 | 58.58 | 0.015
398.15 K, 3839 kPa, x1 = 0.246 | 37.95 | 0.01974
398.15 K, 3905 kPa, x1 = 0.525 | 47.93 | 0.01701
398.15 K, 3965 kPa, x1 = 1 | 87.68 | 0.0141
398.15 K, 4480 kPa, x1 = 1 | 112.3 | 0.01504
398.15 K, 4569 kPa, x1 = 0.78 | 77.25 | 0.0155
398.15 K, 4620 kPa, x1 = 1 | 122.4 | 0.01543
398.15 K, 4730 kPa, x1 = 0.525 | 59.49 | 0.01731
398.15 K, 4860 kPa, x1 = 0.246 | 48.5 | 0.01995
423.15 K, 101 kPa, x1 = 0.272 | 0.662 | 0.01978
423.15 K, 101 kPa, x1 = 0.527 | 0.694 | 0.01721
423.15 K, 101 kPa, x1 = 0.764 | 1.072 | 0.01516
423.15 K, 101 kPa, x1 = 1 | 1.009 | 0.01332
423.15 K, 310 kPa, x1 = 1 | 4.289 | 0.01333
423.15 K, 314 kPa, x1 = 0.272 | 2.901 | 0.01984
423.15 K, 316 kPa, x1 = 0.527 | 3.343 | 0.01723
423.15 K, 320 kPa, x1 = 0.764 | 4.447 | 0.01522
423.15 K, 505 kPa, x1 = 0.527 | 5.456 | 0.01726
423.15 K, 505 kPa, x1 = 1 | 6.812 | 0.01335
423.15 K, 520 kPa, x1 = 0.764 | 6.591 | 0.01524
423.15 K, 529 kPa, x1 = 0.272 | 4.699 | 0.01986
423.15 K, 985 kPa, x1 = 1 | 13.75 | 0.01342
423.15 K, 1021 kPa, x1 = 0.764 | 12.33 | 0.0153
423.15 K, 1040 kPa, x1 = 0.272 | 9.555 | 0.01994
423.15 K, 1047 kPa, x1 = 0.527 | 11.35 | 0.01734
423.15 K, 2013 kPa, x1 = 0.527 | 22.17 | 0.01753
423.15 K, 2022 kPa, x1 = 1 | 30.21 | 0.0137
423.15 K, 2030 kPa, x1 = 0.272 | 18.92 | 0.02008
423.15 K, 2060 kPa, x1 = 0.764 | 25.8 | 0.01558
423.15 K, 2926 kPa, x1 = 0.764 | 38.25 | 0.01581
423.15 K, 2955 kPa, x1 = 0.272 | 27.91 | 0.02018
423.15 K, 2995 kPa, x1 = 0.527 | 33.84 | 0.01769
423.15 K, 3004 kPa, x1 = 1 | 48.47 | 0.01413
423.15 K, 3970 kPa, x1 = 0.764 | 54.49 | 0.01621
423.15 K, 3973 kPa, x1 = 0.527 | 45.63 | 0.01796
423.15 K, 4000 kPa, x1 = 0.272 | 37.87 | 0.02038
423.15 K, 4015 kPa, x1 = 1 | 71.3 | 0.01477
423.15 K, 4495 kPa, x1 = 1 | 86.57 | 0.01521
423.15 K, 4873 kPa, x1 = 0.527 | 56.58 | 0.01822
423.15 K, 4894 kPa, x1 = 0.764 | 69.38 | 0.01664
423.15 K, 4911 kPa, x1 = 0.272 | 46.7 | 0.02057
423.15 K, 4912 kPa, x1 = 1 | 99.15 | 0.01568
